Laboratory results published in patent US7202276B2, “Use of 13-HODE as a regulator of vascular biocompatibility and an inhibitor of cell hyperplasia” (1411198 Ontario Limited, priority 2000, dated 2007).
Where two headings read alike, the source gives them in different places.

Columns and labels:
[1] = stroke, myocardial infarction, transient ischemic attacks; cited from earlier work
Sarcoma 180 tumors = conditions: given orally; cited from earlier work
[2] = Vessel wall (VW) 13-HODE levels in rabbits treated orally with 13-HODE; assay type: in vivo, New Zealand white rabbits; conditions: suspended in ethyl-EPA, all treatment levels
Description: (§1) New Zealand white rabbits (half males/half females; 2.5–2.9 kg) were used throughout. Rabbits were treated with 100, 400 or 1000 μg/kg/day of purified 13-HODE suspended in corn oil or ethyl-eicosapentaenoic acid (EPA), or with an equivolume of either suspending vehicle (total volume 1 ml) for 7 days. Serial blood samples were collected before, during and after treatment to assess the levels of 13-HODE in plasma. On day 7, the treatments were stopped. At that time, the rabbits were anaesthetised with a combination of Atravet, Ketamine, Vetrepham and glycopyrolate, given subcutaneously. Both carotid arteries of anaesthetised rabbits were isolated between 2 temporary ligatures, first by applying the proximal ligature, then allowing the blood to drain from the segment, and then applying the distal ligature. A 24-gauge angiocath attached to tubing filled with sterile saline and connected to a pressure manometer, was inserted into the isolated segment. Then the segment was filled with the saline to a pressure of 600 mm Hg which was maintained for 5 minutes. The pressure was relieved, and the angiocath and ligatures were removed, thereby allowing for blood flow restoration. Cessation of bleeding from the needle puncture site was achieved within 3 minutes without any manual manipulation. The incisions were sutured closed with 000 proline. […]

[3] = Cell free plasma 13-HODE levels in rabbits treated orally with 13-HODE; assay type: in vivo, New Zealand white rabbits
Description: New Zealand white rabbits (half males/half females; 2.5–2.9 kg) were used throughout. Rabbits were treated with 100, 400 or 1000 μg/kg/day of purified 13-HODE suspended in corn oil or ethyl-eicosapentaenoic acid (EPA), or with an equivolume of either suspending vehicle (total volume 1 ml) for 7 days. Serial blood samples were collected before, during and after treatment to assess the levels of 13-HODE in plasma. On day 7, the treatments were stopped. At that time, the rabbits were anaesthetised with a combination of Atravet, Ketamine, Vetrepham and glycopyrolate, given subcutaneously. Both carotid arteries of anaesthetised rabbits were isolated between 2 temporary ligatures, first by applying the proximal ligature, then allowing the blood to drain from the segment, and then applying the distal ligature. A 24-gauge angiocath attached to tubing filled with sterile saline and connected to a pressure manometer, was inserted into the isolated segment. Then the segment was filled with the saline to a pressure of 600 mm Hg which was maintained for 5 minutes. The pressure was relieved, and the angiocath and ligatures were removed, thereby allowing for blood flow restoration. Cessation of bleeding from the needle puncture site was achieved within 3 minutes without any manual manipulation. The incisions were sutured closed with 000 proline. The rabbits were injected intramuscularly with Temgesic to minimize any pain and with 12.5 mg Baytril as an antibiotic, and then allowed to recover. This injury procedure results in endothelial denudation and the exposure of a thrombogenic surface within 1 hour of restoration of blood flow, followed by SMC proliferation and intimal hyperplasia, which plateaus at □ 4 weeks and which is sustained for ≧12 weeks (Buchanan M R, Brister S J: 1998: Buchanan M R et al. 1999).
Two, four or twelve weeks later, the rabbits were re-anaesthetised and their injured carotid arteries were again isolated. Segments of injured and uninjured carotid artery were harvested and processed histologically to assess VW hyperplasia. Other VW segments and blood samples were collected and processed for VW and plasma 13-HODE levels.

[4] = Stability of 13-HODE dosage forms; assay type: physicochemical; conditions: dissolved into a triglyceride oil carrier or an ester
Description: A real problem is presented by the fact that active daily doses of 13-HODE are in the 50 to 1,000 μg/kg/day range. […] That translates into a 7 mg/day dose for a 70 kg person. Since doses for humans are often considerably lower than doses for animals because of a weight/body surface area scaling, a daily dose of as little as 5 mg or less is really possible. Formulating an oily liquid is such small doses is a problem. It could be absorbed into tabletting materials and tabletted and coated, or micro-encapsulated by methods well known to those skilled in the art. […] Other triglyceride oils such as vegetable oil, including sunflower, safflower, soy, evening primrose, borage, coconut or palm oil, or cottonseed, rapeseed, olive, fish body or fish liver oils may all be used for this purpose. Particularly useful esters for this purpose are esters of fatty acids with 16–26 carbon atoms and one or more double bonds in the chain.

[5] = test system: VW intimal hyperplasia of injured carotid arteries; assay: Intimal hyperplasia after carotid artery pressure injury in rabbits; assay type: in vivo, New Zealand white rabbits; conditions: 7 day course of 100 μg/kg/day, in either corn oil or ethyl-EPA, p<0.001
Description: as §1

[6] = test system: platelet/injured VW interactions; conditions: dose comparable to that used clinically; cited from earlier work
intimal SMC hyperplasia = conditions: 1 mg/kg/day for 7 days before VW injury, 4 weeks after VW injury; cited from earlier work
[7] = test system: platelet/injured VW interactions; conditions: 3.2 gm daily for 30 days; cited from earlier work
[8] = 3.2 gm daily (20 capsules) for 30 days; cited from earlier work

**Q.** Which overall risk reduction [1] does the source give for `CC(=O)Oc1ccccc1C(=O)O` [ASA] here?
**A.** ~25%

**Q.** With `CCCCC/C=C\C=C\C(O)CCCCCCCC(=O)O` (stereo not shown) [9-HODE, 9-hydroxy-10(E)-12(Z) octadecadienoic acid] as the molecule, how does the “minimum effective dose for inhibiting the rate of tumour growth” value (Sarcoma 180 tumors) read?
**A.** 55 mg/kg/day

**Q.** With `CCCCCC(O)/C=C/C=C\CCCCCCCC(=O)O` (stereo not shown) [13-HODE, 13-hydroxyoctadeca-9Z, 11E-dienoic acid] as the molecule, how does the “absolute levels of VW 13-HODE, compared with corn oil” value [2] read?
**A.** somewhat lower at all treatment levels tested

**Q.** And the “time to significantly elevated cell-free plasma 13-HODE level” value ([3]; 1,000 μg/kg/day oral)?
**A.** ≤ 3 days

**Q.** And the “time cell-free plasma 13-HODE level remained elevated” value ([3]; 1,000 μg/kg/day oral, treatment stopped after 7 days)?
**A.** 4 weeks

**Q.** What about the “effect on plasma 13-HODE levels of increasing the dose” value ([3]; 1,000 μg/kg/day vs 100 μg/kg/day, corn oil) of the same molecule?
**A.** no further effect

**Q.** What about the “increase in the plasma 13-HODE levels” value ([3]; after 7 days of oral 100 μg/kg/day, suspended in corn oil) of the same molecule?
**A.** three-fold increase

**Q.** What about the half life ([3]; orally administered) of the same molecule?
**A.** long half life

**Q.** And the oral absorption ([3]; orally administered)?
**A.** well absorbed

**Q.** What about the “absolute levels of plasma 13-HODE, compared with corn oil” value ([3]; suspended in ethyl-EPA, all treatment levels) of the same molecule?
**A.** lower in all treatment levels tested

**Q.** And the “stability of the dosage form” value [4]?
**A.** stable without degradation

**Q.** What about the “intimal VW hyperplasia” value [5] of the same molecule?
**A.** significantly inhibited

**Q.** Which “decrease in platelet/injured VW interactions” value [6] does the source give for `OCCN(CCO)c1nc(N2CCCCC2)c2nc(N(CCO)CCO)nc(N3CCCCC3)c2n1` [Persantine] here?
**A.** > 2 fold

**Q.** What about the SMC hyperplasia (intimal SMC hyperplasia) of the same molecule?
**A.** inhibited

**Q.** What does the source list for `CCCCC/C=C\C/C=C\CCCCCCCC(=O)O` [linoleic acid, Octa-deca-9Z, 12Z-dienoic acid]?
**A.** decrease in platelet/injured VW interactions [7]: > 2 fold; increase in VW 13-HODE levels [8]: 2 fold
